Assay results as given in PubChem BioAssay (NCI).
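Values below derive from 48-hour exposures of cells grown in 96-well plates, with endpoints linearly interpolated between the two concentrations bracketing the appropriate inhibition level. GI50 = concentration required for 50% inhibition of growth. The concentration for full growth arrest is given as TGI.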

Experiments:
Test in all cases: NCI-60 cell line screen, 48 h; in the data active = GI50 below about 0.43 µM; inactive = the rest
U251 CNS = test system: U251 CNS
T-47D breast = test system: T-47D breast
SK-MEL-2 melanoma = test system: SK-MEL-2 melanoma
HS 578T breast = test system: HS 578T breast
HOP-62 NSCLC = test system: HOP-62 NSCLC
OVCAR-3 ovarian = test system: OVCAR-3 ovarian
MDA-MB-435 = test system: MDA-MB-435
HCC-2998 colon = test system: HCC-2998 colon
MCF7 breast = test system: MCF7 breast
DU-145 prostate = test system: DU-145 prostate
SW-620 colon = test system: SW-620 colon
A549 NSCLC = test system: A549 NSCLC
SK-MEL-28 melanoma = test system: SK-MEL-28 melanoma
SNB-19 CNS = test system: SNB-19 CNS
NCI-H460 lung = test system: NCI-H460 lung
MALME-3M melanoma = test system: MALME-3M melanoma
SK-MEL-5 melanoma = test system: SK-MEL-5 melanoma
SF-539 CNS = test system: SF-539 CNS
UO-31 renal = test system: UO-31 renal
SNB-75 CNS = test system: SNB-75 CNS
SF-268 CNS = test system: SF-268 CNS
M14 melanoma = test system: M14 melanoma
NCI-H522 lung = test system: NCI-H522 lung
HL-60(TB) leukemia = test system: HL-60(TB) leukemia
A498 renal = test system: A498 renal
COLO 205 colon = test system: COLO 205 colon
NCI/ADR-RES ovarian = test system: NCI/ADR-RES ovarian
CCRF-CEM leukemia = test system: CCRF-CEM leukemia
HCT-116 colon = test system: HCT-116 colon

Cn1ncc2ncc(-c3ccc4ncc(C#N)c(N5CCc6cc(F)c(Cl)cc65)c4c3)cc21
37.7 µM: TGI (SK-MEL-2 melanoma)
11.8 µM: TGI (MDA-MB-435)
inactive: GI50 (U251 CNS) 5.46 µM | GI50 (T-47D breast) 2.03 µM | GI50 (SK-MEL-2 melanoma) 5.65 µM | GI50 (HS 578T breast) 1.44 µM | GI50 (HOP-62 NSCLC) 2.74 µM | GI50 (OVCAR-3 ovarian) 2.66 µM | GI50 (MDA-MB-435) 3.13 µM | GI50 (HCC-2998 colon) 3.26 µM | GI50 (MCF7 breast) 2.44 µM | GI50 (DU-145 prostate) 4.05 µM | GI50 (SW-620 colon) 7.04 µM | GI50 (A549 NSCLC) 4.05 µM | GI50 (SK-MEL-28 melanoma) 4.92 µM | GI50 (SNB-19 CNS) 6.72 µM | GI50 (NCI-H460 lung) 4.93 µM | GI50 (MALME-3M melanoma) 2.14 µM | GI50 (SK-MEL-5 melanoma) 6.97 µM | GI50 (SF-539 CNS) 3.78 µM | GI50 (SNB-75 CNS) 0.769 µM | GI50 (SF-268 CNS) 4.11 µM | GI50 (M14 melanoma) 6.02 µM | GI50 (NCI-H522 lung) 3.28 µM | GI50 (HL-60(TB) leukemia) 7.84 µM | GI50 (A498 renal) 2.61 µM | GI50 (COLO 205 colon) 5.8 µM | GI50 (NCI/ADR-RES ovarian) 3.27 µM | GI50 (CCRF-CEM leukemia) 4.62 µM | GI50 (HCT-116 colon) 9.79 µM
21.9 µM: TGI (SK-MEL-5 melanoma)
14.9 µM: TGI (MALME-3M melanoma)
31.1 µM: TGI (T-47D breast)
active: GI50 (UO-31 renal) 0.251 µM
10.5 µM: TGI (UO-31 renal)
5.47 µM: TGI (SNB-75 CNS)
83.6 µM: TGI (OVCAR-3 ovarian)
7.7 µM: TGI (A498 renal)
> 100 µM: TGI (U251 CNS) | TGI (HOP-62 NSCLC) | TGI (HCC-2998 colon) | TGI (MCF7 breast) | TGI (DU-145 prostate) | TGI (SW-620 colon) | TGI (A549 NSCLC) | TGI (SK-MEL-28 melanoma) | TGI (SNB-19 CNS) | TGI (NCI-H460 lung) | TGI (SF-268 CNS) | TGI (M14 melanoma) | TGI (NCI-H522 lung) | TGI (HL-60(TB) leukemia) | TGI (COLO 205 colon) | TGI (NCI/ADR-RES ovarian) | TGI (CCRF-CEM leukemia)
61.7 µM: TGI (SF-539 CNS)
5.41 µM: TGI (HS 578T breast)
